The test system of assay [1] is EP2. The assay can be described thus: EP2 gene expression in HaCaT after UVB radiation (q-PCR). It counts as cell-based, human. The conditions noted are these: UVB 80 mJ/cm^2, 24 hrs, dose-dependent. From the text: In the following Test Examples 6-1 and 6-2, using immortalized keratinocytes (HaCaT) and UVB to establish a model, after the compound to be test was applied to HaCaT, the expression levels of TNF-α, IL-8, IL-1β and EP2 were detected; using immortalized keratinocytes (HaCaT) and capsaicin to establish a model, after the compound to be test was applied to HaCaT, the expression level of TRPV1 was detected, so as to evaluate the soothing effect of the test substance from multiple dimensions.
• 1) Cell inoculation: HaCaT cells were inoculated into a 6-well plate at 6×10^5/well, cultured in an incubator (37°C, 5% CO2) for 12 hrs, and a normal control group (0 mJ/cm^2 + vehicle control), a model control group (80 mJ/cm^2 + vehicle control), a low concentration group (80 mJ/cm^2 + low concentration compound), a medium concentration group (80 mJ/cm^2 + medium concentration compound), and a high concentration group (80 mJ/cm^2 + high concentration compounds) were respectively provided. • 2) UVB modeling: The HaCaT cells were washed 3 times with D'Hanks before UVB radiation, 1 mL of D'Hanks was added into the wells, to make the cells to be immersed, and the control group was coated with tinfoil and placed in the dark. […]

In assay [2] the test system is HaCaT cells. As to the kind of experiment: ROS content / ROS scavenging rate in HaCaT after UVB radiation (DCFH-DA). It is filed as cell-based, human. The following applies: for ROS scavenging rate: HaCaT cells after UVB radiation. An excerpt: Oxidative reactions such as respiration and metabolism in organisms generate reactive free radicals. Under normal bodily conditions, free radicals have a stable scavenging system, so that the free radical content of the body is kept at a relatively low concentration. Oxidative stress (OS) refers to an imbalance between oxidation and antioxidation in the body due to endogenous and/or exogenous stimuli, resulting in excessive free radical production. Excessive free radicals produce a series of negative effects in the body, including oxidative damage to biomolecules and further causing cell death and tissue damage, etc. In organisms, almost all ROS, except for trace amounts utilized by the body, should be promptly scavenged. Medium Wave Erythema Effect Ultraviolet (UVB) (280-319 nm) radiation damage is the most important factor leading to photoaging of the skin, primarily damaging keratinocytes (HaCaT), specifically manifested as the accumulation of photoproducts, increased ROS, and exacerbated oxidative damage, etc. Over long periods of evolution, organisms have developed a complete antioxidant system, maintaining a dynamic balance between the production and elimination of free radicals. This is an adaptive mechanism of organisms, and the main members include antioxidant enzymes, antioxidants, and proteins that separate transition metals, all of which can specifically limit oxidative damage to the body. Therefore, the antioxidant efficacy of a test compound can be evaluated by detecting the ROS scavenging rate in keratinocytes after UVB radiation.
• 1) Cell inoculation: HaCaT cells were inoculated into a 96-well plate at 2 × 10^4/well, cultured in an incubator (37 °C, 5% CO2) for 12 hrs, and a control group (120 mJ/cm^2 + vehicle control), a low concentration group (120 mJ/cm^2 + low concentration compound), a medium concentration group (120 mJ/cm^2 + medium concentration compound), and a high concentration group (120 mJ/cm^2 + high concentration compound) were respectively provided. • 2) UVB modeling: The HaCaT cells were washed 3 times with D'Hanks before UVB radiation, 50 µL of D'Hanks was added into the wells, to make the cells to be immersed, and the control group was coated with tinfoil and placed in the dark. For the test groups, UVB modeling was performed on the group requiring radiation, respectively. • 3) Administration: DMEM medium containing different concentrations of compound were added to each test group for continued culture for 24 hrs. • 4) Transferring the ROS fluorescent probe: DCFH-DA was Diluted to a final concentration of 10 µmol/L using PBS at a dilution ratio of 1:1000. The culture medium in all wells except the bare cell wells was discarded. After washing three times with PBS, 200 µL of DCFH-DA working solution was added to each well, then incubated in a CO2 incubator for 30 min, and after incubation, the cells in each well were washed with PBS for 3 times. • 5) Fluorescence analysis. The 96-well plate to be tested was placed on the detection stage of the fluorescence microplate reader, with the […] set to 525 nm, the excitation light wavelength set to 488 nm, and the reading was analyzed.
ROS scavenging rate (%) = (S(Modelcontrolgroup)−S(Samplegroup))/(S(Modelcontrolgroup)) × 100% [formula] wherein S is fluorescence intensity.

The subject of assay [3] is type I collagen. The assay can be described thus: Type I collagen expression in HSF human skin fibroblasts (ELISA). It counts as cell-based. The following applies: 24 hrs, dose-dependent. An excerpt:
Skin fragility is partly attributed to changes in hemidesmosomes and the expression downregulation of various collagen proteins (Collagen I, III, IV, VII) or laminins (such as LN-5) at the dermal-epidermal junction. LN-5 has been proven to be a component of anchoring fibers in the basement membrane of the skin, cornea, conjunctiva, and other tissues. LN-5 participates in cell-cell interactions through the mediation of integrins and proteoglycans, thereby playing a crucial role in cell adhesion, growth, migration, and differentiation. The appearance of wrinkles is closely related to the normal synthesis and expression of collagen and laminins. Therefore, the increase of the above collagen content and LN-5 can achieve a certain role in resisting wrinkles, and plays an important role in the aging process of the skin. Therefore, the anti-wrinkle effect of the compound to be tested was evaluated by detecting the level of Collage I protein of […] by ELISA, and detecting the transcription levels of epidermal cells (keratinocytes) III, IV, VII and LN -5 by Real-Time PCR. The following Test Examples 8-1 and 8-2 evaluated the anti-wrinkle efficacy of compounds using HaCaT human immortalized keratinocytes and HSF human skin fibroblasts. […]
For orientation: In an ELISA, binding on a coated surface is turned into a signal by an enzyme label.

Consider `O=S1(=O)Oc2cc(O)ccc2-c2ccc(O)cc21` [Compound I-8], for which the “expression level of EP2” value in assay [1] was “downregulating”. For the same compound, in assay [2] (HaCaT, UVB 120 mJ/cm^2, 24 hrs, low, medium, high concentration), the “ROS content in HaCaT after UVB radiation” value is on record as “scavenging ROS in a dose-dependent manner”. In addition, the ROS scavenging rate stood at 12% in assay [2] (content 0.00015625%), 22% in assay [2] (content 0.000625%) and 26% in assay [2] (content 0.0025%). Further, the “secretion of type I collagen” value in assay [3] is reported as “improving the secretion of type I collagen”.

(Values after EP4803511A1, “SMALL MOLECULE COMPOUND HAVING SULFONIC ACID OR SULFINIC ACID LACTONE STRUCTURE, COMPOSITION AND USE THEREOF” (Hangzhou Phecdamed Co., Ltd., priority 2023, dated 2025).)
